From the NIST ThermoML archive (doi:10.1021/je050473r)
Numbers after ± are expanded uncertainties.

Conditions: Liquid
[1] = 303.15 K, Closed cell (Static) method
[2] = 353.15 K, Closed cell (Static) method
[3] = 373.1 K, Closed cell (Static) method
[4] = 413.15 K, Closed cell (Static) method

vapor or sublimation pressure [3]	vapor or sublimation pressure [4]	Compound	also measured
–	–	ClCCCl [1,2-dichloroethane]	vapor or sublimation pressure [1]: 13.28 ± 1 kPa; vapor or sublimation pressure [2]: 90.9 ± 1 kPa
103.49 ± 1.1 kPa	282.8 ± 1.4 kPa	CC(C)CC(C)(C)C [2,2,4-trimethylpentane]	–
33.26 ± 1 kPa	111.4 ± 1.1 kPa	CCc1cccs1 [2-ethylthiophene]	–
69.87 ± 1.1 kPa	209.8 ± 1.2 kPa	Cc1cccs1 [2-methylthiophene]	–
–	–	Cl/C=C/Cl [(E)-1,2-dichloroethene]	vapor or sublimation pressure [1]: 53.33 ± 1.1 kPa; vapor or sublimation pressure [2]: 269.9 ± 1.3 kPa
–	–	N#CC1CC1 [cyclopropanecarbonitrile]	vapor or sublimation pressure (373.1 K): 35.2 ± 1 kPa; vapor or sublimation pressure (408.15 K): 102.2 ± 1.2 kPa
53.82 ± 1.1 kPa	165.9 ± 1.2 kPa	C=CCCCCCC [oct-1-ene]	–
–	–	O [water]	vapor or sublimation pressure (373.1 K): 101.4 ± 1.3 kPa; vapor or sublimation pressure (408.15 K): 312.4 ± 2.1 kPa
